Laboratory results as given in US20240115557A1, “INHIBITORS OF RNA-GUIDED NUCLEASES AND USES THEREOF” (The Brigham and Women's Hospital, Inc., priority 2022, published 2024).

Experiments:
SpCas9 [1] = target: T1, SpCas9 (Streptococcus pyogenes serotype M1, UniProt Q99ZW2); assay: Strand displacement assay (SDA) / cumulative activity assay (CAA), SpCas9 primary screen; type: biochemical; details: Primary Screen (150 min); for Normalized Z score 1: replicate 1; for Normalized Z score 2: replicate 2
In short: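 SpCas9:gRNA RNP in 20 mM Tris-HCl pH 7.5, 100 mM KCl, 5 mM MgCl2 was used at 10 nM (2× stock) with Alexa Fluor 647-labelled substrate and excess quencher strand (1 nM and 5 nM, 2× stocks). Fluorescence was read after 2.5 h at 37 °C, where cleavage lets the quencher strand anneal.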

SpCas9 [2] = target: T1, SpCas9; assay: eGFP disruption assay, SpCas9, U2OS.eGFP.PEST cells; type: cell-based; details: for Z score Rep1 / Normalized Z rep1: replicate 1; for SpCas9 eGFP disruption Rep1: replicate 1, raw readout; for Z socre Rep2 / Normalized Z rep2: replicate 2; for SpCas9 eGFP disruption Rep2: replicate 2, raw readout
In short: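 Rescue of eGFP signal lost through Cas9-induced NHEJ indels serves as the inhibition read-out, after 24 h compound exposure (20 μM for hits, variable for dose-response). Editing was delivered by nucleofection into U2OS.eGFP.PEST cells as SpCas9/gRNA plasmids (300/30 ng) or RNP (10/12 pmol). Toxic and autofluorescent compounds were excluded.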

[3] = Cas9 = lower control, Ctrl = upper control
[4] = normalized, lower control about 0, upper control about 1

T1 sequence (Q99ZW2 whole entry): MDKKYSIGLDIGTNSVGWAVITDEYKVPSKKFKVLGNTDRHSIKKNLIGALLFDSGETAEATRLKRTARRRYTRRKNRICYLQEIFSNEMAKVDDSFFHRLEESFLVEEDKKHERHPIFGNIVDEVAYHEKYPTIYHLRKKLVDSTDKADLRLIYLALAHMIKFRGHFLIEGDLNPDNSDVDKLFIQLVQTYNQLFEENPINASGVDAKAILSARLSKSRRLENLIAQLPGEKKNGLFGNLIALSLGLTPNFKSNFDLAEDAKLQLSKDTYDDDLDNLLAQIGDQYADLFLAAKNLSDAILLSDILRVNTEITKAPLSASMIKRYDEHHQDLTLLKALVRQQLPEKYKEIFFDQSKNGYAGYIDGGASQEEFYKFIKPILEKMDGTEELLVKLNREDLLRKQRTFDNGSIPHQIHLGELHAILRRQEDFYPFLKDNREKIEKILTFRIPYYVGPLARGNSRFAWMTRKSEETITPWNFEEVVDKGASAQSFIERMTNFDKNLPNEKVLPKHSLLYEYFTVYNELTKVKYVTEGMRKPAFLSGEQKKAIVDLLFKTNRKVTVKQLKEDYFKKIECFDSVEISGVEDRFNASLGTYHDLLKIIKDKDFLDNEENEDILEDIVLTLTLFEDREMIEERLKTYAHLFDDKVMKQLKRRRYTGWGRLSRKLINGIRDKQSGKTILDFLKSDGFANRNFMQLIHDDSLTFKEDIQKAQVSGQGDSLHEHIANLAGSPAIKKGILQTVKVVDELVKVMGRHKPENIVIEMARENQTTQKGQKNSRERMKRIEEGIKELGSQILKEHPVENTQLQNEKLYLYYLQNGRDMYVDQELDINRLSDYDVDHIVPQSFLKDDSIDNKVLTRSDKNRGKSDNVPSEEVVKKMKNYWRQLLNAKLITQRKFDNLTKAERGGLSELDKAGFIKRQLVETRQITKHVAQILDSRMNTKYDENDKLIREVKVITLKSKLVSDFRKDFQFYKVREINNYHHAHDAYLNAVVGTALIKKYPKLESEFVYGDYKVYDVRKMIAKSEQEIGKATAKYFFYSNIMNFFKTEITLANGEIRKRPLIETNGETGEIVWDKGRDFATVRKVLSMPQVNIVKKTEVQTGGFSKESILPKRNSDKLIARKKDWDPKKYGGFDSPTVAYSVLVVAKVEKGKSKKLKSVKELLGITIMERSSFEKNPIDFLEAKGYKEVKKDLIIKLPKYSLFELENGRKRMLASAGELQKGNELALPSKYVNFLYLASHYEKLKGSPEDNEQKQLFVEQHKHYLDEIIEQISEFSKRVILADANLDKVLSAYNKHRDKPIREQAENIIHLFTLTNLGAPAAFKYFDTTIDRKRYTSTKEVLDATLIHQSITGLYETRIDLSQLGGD

COc1ccc(CNC(=O)c2ccc(Oc3ccnc(-c4cccc(F)c4)n3)cc2)c(OC)c1 [Compound L662-0987]
Average Normalized Z score (SpCas9 [1]): 0.37 | avg z score primary (SpCas9 [1]): 7.18 | Normalized Z score 1 (SpCas9 [1]): 0.38 | Normalized Z score 2 (SpCas9 [1]): 0.36 | Z score Rep1 (SpCas9 [2]): 1.06 | SpCas9 eGFP disruption Rep1 (SpCas9 [2]; [3]): 79.157 | Normalized Z rep1 (SpCas9 [2]; [4]): 0.16 | Z socre Rep2 (SpCas9 [2]): 1.78 | SpCas9 eGFP disruption Rep2 (SpCas9 [2]; [3]): 79.829 | Normalized Z rep2 (SpCas9 [2]; [4]): 0.19

CCC(C)NC(=O)c1cccc(Oc2cc(-c3ccccc3)ncn2)c1 (stereo not shown) [Compound L663-0996]
Average Normalized Z score (SpCas9 [1]): 0.39 | avg z score primary (SpCas9 [1]): 7.57 | Normalized Z score 1 (SpCas9 [1]): 0.43 | Normalized Z score 2 (SpCas9 [1]): 0.35 | Normalized Z rep1 (SpCas9 [2]): −0.03 | Z score Rep1 (SpCas9 [2]): −0.21 | SpCas9 eGFP disruption Rep1 (SpCas9 [2]): 75.44 | Normalized Z rep2 (SpCas9 [2]): −0.37 | Z socre Rep2 (SpCas9 [2]): −3.54 | SpCas9 eGFP disruption Rep2 (SpCas9 [2]): 69.294

O=C(NC1CCCCC1)c1cccc(Oc2cc(-c3ccccc3)ncn2)c1 [Compound L663-0999]
Average Normalized Z score (SpCas9 [1]): 0.40 | avg z score primary (SpCas9 [1]): 7.77 | Normalized Z score 1 (SpCas9 [1]): 0.44 | Normalized Z score 2 (SpCas9 [1]): 0.36 | Z score Rep1 (SpCas9 [2]): 0.55 | SpCas9 eGFP disruption Rep1 (SpCas9 [2]; [3]): 77.659 | Normalized Z rep1 (SpCas9 [2]; [4]): 0.08 | Z socre Rep2 (SpCas9 [2]): −1.03 | SpCas9 eGFP disruption Rep2 (SpCas9 [2]; [3]): 74.256 | Normalized Z rep2 (SpCas9 [2]; [4]): −0.11

O=C(NC1CCCC1)c1cccc(Oc2cc(-c3ccccc3)ncn2)c1 [Compound L663-1002]
Average Normalized Z score (SpCas9 [1]): 0.27 | avg z score primary (SpCas9 [1]): 5.18 | Normalized Z score 1 (SpCas9 [1]): 0.22 | Normalized Z score 2 (SpCas9 [1]): 0.31 | Normalized Z rep1 (SpCas9 [2]): −0.26 | Z score Rep1 (SpCas9 [2]): −1.70 | SpCas9 eGFP disruption Rep1 (SpCas9 [2]): 71.095 | Normalized Z rep2 (SpCas9 [2]): 0.01 | Z socre Rep2 (SpCas9 [2]): 0.05 | SpCas9 eGFP disruption Rep2 (SpCas9 [2]): 76.396

Cc1ccc(C(C)NC(=O)c2cccc(Oc3cc(-c4ccccc4)ncn3)c2)cc1 (stereo not shown) [Compound L663-1062]
Average Normalized Z score (SpCas9 [1]): 0.28 | avg z score primary (SpCas9 [1]): 5.51 | Normalized Z score 1 (SpCas9 [1]): 0.28 | Normalized Z score 2 (SpCas9 [1]): 0.29 | Normalized Z rep1 (SpCas9 [2]): −0.10 | Z score Rep1 (SpCas9 [2]): −0.64 | SpCas9 eGFP disruption Rep1 (SpCas9 [2]): 74.182 | Normalized Z rep2 (SpCas9 [2]): −0.07 | Z socre Rep2 (SpCas9 [2]): −0.70 | SpCas9 eGFP disruption Rep2 (SpCas9 [2]): 74.913

O=C(NCc1ccc2c(c1)OCO2)c1cccc(Oc2cc(-c3ccccc3)ncn2)c1 [Compound L663-1076]
Average Normalized Z score (SpCas9 [1]): 0.40 | avg z score primary (SpCas9 [1]): 7.72 | Normalized Z score 1 (SpCas9 [1]): 0.38 | Normalized Z score 2 (SpCas9 [1]): 0.41 | Normalized Z rep1 (SpCas9 [2]): −0.11 | Z score Rep1 (SpCas9 [2]): −0.69 | SpCas9 eGFP disruption Rep1 (SpCas9 [2]): 74.045 | Normalized Z rep2 (SpCas9 [2]): −0.01 | Z socre Rep2 (SpCas9 [2]): −0.12 | SpCas9 eGFP disruption Rep2 (SpCas9 [2]): 76.06

COc1ccc(-c2cc(N3CCN(C(=O)c4ccc(C(C)(C)C)cc4)CC3)ncn2)cc1 [Compound M130-0012]
avg z score primary (SpCas9 [1]): 20.61 | Average Normalized Z score (SpCas9 [1]; average of replicates): 0.28 | Normalized Z score 1 (SpCas9 [1]): 0.28 | Normalized Z score 2 (SpCas9 [1]): 0.28 | Normalized Z rep1 (SpCas9 [2]): −0.10 | Z score Rep1 (SpCas9 [2]): −0.67 | SpCas9 eGFP disruption Rep1 (SpCas9 [2]): 74.104 | Normalized Z rep2 (SpCas9 [2]): −0.03 | Z socre Rep2 (SpCas9 [2]): −0.27 | SpCas9 eGFP disruption Rep2 (SpCas9 [2]): 75.755

COc1ccc(C2CNC(=O)C2)cc1OC1CCCC1 (stereo not shown) [Compound S2127]
avg z score primary (SpCas9 [1]): 3.63 | Average Normalized Z score (SpCas9 [1]; average of replicates): 0.17 | Normalized Z score 1 (SpCas9 [1]): 0.17 | Normalized Z score 2 (SpCas9 [1]): 0.17 | Normalized Z rep1 (SpCas9 [2]): −0.11 | Z score Rep1 (SpCas9 [2]): −0.74 | SpCas9 eGFP disruption Rep1 (SpCas9 [2]): 73.9 | Normalized Z rep2 (SpCas9 [2]): −0.28 | Z socre Rep2 (SpCas9 [2]): −2.66 | SpCas9 eGFP disruption Rep2 (SpCas9 [2]): 71.027

Cc1ncc(-c2ccnc(Nc3ccc(S(C)(=O)=O)cc3)n2)n1C(C)C [Compound S2621]
avg z score primary (SpCas9 [1]): 6.88 | Average Normalized Z score (SpCas9 [1]; average of replicates): 0.35 | Normalized Z score 1 (SpCas9 [1]): 0.43 | Normalized Z score 2 (SpCas9 [1]): 0.26 | Normalized Z rep1 (SpCas9 [2]): −1.68 | Z score Rep1 (SpCas9 [2]): −10.98 | SpCas9 eGFP disruption Rep1 (SpCas9 [2]): 43.978 | Normalized Z rep2 (SpCas9 [2]): −1.71 | Z socre Rep2 (SpCas9 [2]): −16.40 | SpCas9 eGFP disruption Rep2 (SpCas9 [2]): 43.815

Cc1[nH]nc2ccc(-c3cncc(OCC(N)Cc4ccccc4)c3)cc12 (stereo not shown) [Compound S2670]
avg z score primary (SpCas9 [1]): 3.67 | Average Normalized Z score (SpCas9 [1]; average of replicates): 0.19 | Normalized Z score 1 (SpCas9 [1]): 0.17 | Normalized Z score 2 (SpCas9 [1]): 0.21 | Normalized Z rep1 (SpCas9 [2]): −3.44 | Z score Rep1 (SpCas9 [2]): −22.46 | SpCas9 eGFP disruption Rep1 (SpCas9 [2]): 10.416 | Normalized Z rep2 (SpCas9 [2]): −3.50 | Z socre Rep2 (SpCas9 [2]): −33.58 | SpCas9 eGFP disruption Rep2 (SpCas9 [2]): 9.7985

Cl.Cl.Fc1cc(-c2cccc3ncc(-c4cnn(C5CCNCC5)c4)nc23)cc(F)c1CN1CCOCC1 [Compound S2686]
avg z score primary (SpCas9 [1]): 7.03 | Average Normalized Z score (SpCas9 [1]; average of replicates): 0.36 | Normalized Z score 1 (SpCas9 [1]): 0.37 | Normalized Z score 2 (SpCas9 [1]): 0.35 | Normalized Z rep1 (SpCas9 [2]): −0.73 | Z score Rep1 (SpCas9 [2]): −4.74 | SpCas9 eGFP disruption Rep1 (SpCas9 [2]): 62.196 | Normalized Z rep2 (SpCas9 [2]): −0.57 | Z socre Rep2 (SpCas9 [2]): −5.44 | SpCas9 eGFP disruption Rep2 (SpCas9 [2]): 65.516

COc1ccc(-c2cc3c(C)nc(N)nc3n(C3CCC(OCCO)CC3)c2=O)cn1 (stereo not shown) [Compound S2743]
avg z score primary (SpCas9 [1]): 8.74 | Average Normalized Z score (SpCas9 [1]; average of replicates): 0.45 | Normalized Z score 1 (SpCas9 [1]): 0.45 | Normalized Z score 2 (SpCas9 [1]): 0.44 | Normalized Z rep1 (SpCas9 [2]): −0.75 | Z score Rep1 (SpCas9 [2]): −4.92 | SpCas9 eGFP disruption Rep1 (SpCas9 [2]): 61.679 | Normalized Z rep2 (SpCas9 [2]): −0.89 | Z socre Rep2 (SpCas9 [2]): −8.50 | SpCas9 eGFP disruption Rep2 (SpCas9 [2]): 59.461

COc1ccc(-c2ccc3ncc4c(c3c2)n(-c2ccc(N3CCNCC3)c(C(F)(F)F)c2)c(=O)n4C)cn1.O=C(O)C=CC(=O)O [Compound S2749]
avg z score primary (SpCas9 [1]): 6.76 | Average Normalized Z score (SpCas9 [1]; average of replicates): 0.34 | Normalized Z score 1 (SpCas9 [1]): 0.35 | Normalized Z score 2 (SpCas9 [1]): 0.34 | Normalized Z rep1 (SpCas9 [2]): −3.98 | Z score Rep1 (SpCas9 [2]): −26.02 | SpCas9 eGFP disruption Rep1 (SpCas9 [2]): 0 | Normalized Z rep2 (SpCas9 [2]): −4.01 | Z socre Rep2 (SpCas9 [2]): −38.53 | SpCas9 eGFP disruption Rep2 (SpCas9 [2]): 0

Cc1c(P(=S)(N2CCOCC2)N2CCOCC2)cc(C#N)n1C [Compound T0503-9777]
avg z score primary (SpCas9 [1]): 4.67 | Average Normalized Z score (SpCas9 [1]; average of replicates): 0.06 | Normalized Z score 1 (SpCas9 [1]): 0.06 | Normalized Z score 2 (SpCas9 [1]): 0.06 | Z score Rep1 (SpCas9 [2]): 1.11 | SpCas9 eGFP disruption Rep1 (SpCas9 [2]; [3]): 60.694 | Normalized Z rep1 (SpCas9 [2]; [4]): 0.08 | Z socre Rep2 (SpCas9 [2]): 1.28 | SpCas9 eGFP disruption Rep2 (SpCas9 [2]; [3]): 57.686 | Normalized Z rep2 (SpCas9 [2]; [4]): 0.06

CCOC(=O)C1=C(C)NN=C(Nc2cccc(C)c2C)S1 [Compound T0519-6400]
avg z score primary (SpCas9 [1]): 4.54 | Average Normalized Z score (SpCas9 [1]; average of replicates): 0.06 | Normalized Z score 1 (SpCas9 [1]): 0.05 | Normalized Z score 2 (SpCas9 [1]): 0.07 | Z score Rep1 (SpCas9 [2]): 1.96 | SpCas9 eGFP disruption Rep1 (SpCas9 [2]; [3]): 62.891 | Normalized Z rep1 (SpCas9 [2]; [4]): 0.14 | Z socre Rep2 (SpCas9 [2]): 2.42 | SpCas9 eGFP disruption Rep2 (SpCas9 [2]; [3]): 59.8 | Normalized Z rep2 (SpCas9 [2]; [4]): 0.12

CCn1c(CCC(=O)O)nc2cc(S(N)(=O)=O)ccc21 [Compound T5380152]
avg z score primary (SpCas9 [1]): 4.58 | Average Normalized Z score (SpCas9 [1]; average of replicates): 0.13 | Normalized Z score 1 (SpCas9 [1]): 0.14 | Normalized Z score 2 (SpCas9 [1]): 0.11 | Z score Rep1 (SpCas9 [2]): −1.27 | SpCas9 eGFP disruption Rep1 (SpCas9 [2]; [3]): 54.565 | Normalized Z rep1 (SpCas9 [2]; [4]): −0.09 | Z socre Rep2 (SpCas9 [2]): 4.01 | SpCas9 eGFP disruption Rep2 (SpCas9 [2]; [3]): 62.745 | Normalized Z rep2 (SpCas9 [2]; [4]): 0.19
